This is an account of results in US20050065118A1, “Organosulfur inhibitors of tyrosine phosphatases” (priority 2001, published 2005).

The target of data set [1] is T1, PTP-1B (Homo sapiens, UniProt P18031).
T1 sequence (P18031 1-435): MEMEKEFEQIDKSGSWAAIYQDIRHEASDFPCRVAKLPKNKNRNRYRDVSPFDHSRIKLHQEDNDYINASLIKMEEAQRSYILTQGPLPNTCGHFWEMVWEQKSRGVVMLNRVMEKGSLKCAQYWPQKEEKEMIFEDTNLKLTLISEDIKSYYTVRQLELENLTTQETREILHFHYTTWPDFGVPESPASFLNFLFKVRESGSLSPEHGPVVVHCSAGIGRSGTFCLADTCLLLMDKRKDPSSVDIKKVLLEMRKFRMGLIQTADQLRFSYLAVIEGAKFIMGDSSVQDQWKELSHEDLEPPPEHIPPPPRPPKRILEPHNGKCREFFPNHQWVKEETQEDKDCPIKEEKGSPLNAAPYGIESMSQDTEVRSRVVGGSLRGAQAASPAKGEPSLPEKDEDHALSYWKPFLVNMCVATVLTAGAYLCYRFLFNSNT
Kind of data set: PTP-1B inhibition, Malachite Green assay with pIRP substrate. The format is biochemical. On the procedure: The compounds of the present invention are evaluated for biological activity as inhibitors of PTP-1B using, for example, a Malachite Green assay with pIRP as a substrate. The pIRP substrate includes a phosphotyrosine residue, and PTP-1B cleaves the phosphate group from the tyrosine, yielding the peptide and phosphate. The rate of the enzymatic reaction is determined by measuring the phosphate released during the reaction.
The reactants for the assay include 20 mM Tris-HCl, pH 7.4, 2 mM EDTA (ethylaminediamine tetraacetic acid) and 2 mM DTT (dithiothreitol) as the assay buffer, and 1 mM pIRP in assay buffer (1 mg in 0.59 mL buffer) as the substrate stock. The Malachite Green solution is prepared by adding 30 μL of 1% Tween 20 to 1 mL of Malachite Green Solution A. The stock of each compound to be tested is made up as 10 mM in DMSO (dimethylsulfoxide).
The compound to be tested is prepared as 1:5, 1:15.8, 1:50 and 1:158 dilutions from stock in a total volume of […]. The reaction mixtures are prepared in a 96-well microtiter plate as 27.5 μL assay buffer, […] of the diluted compound (to a final concentration of 100, 32, 10 and 3.2 μM), 10 μL of the pIRP substrate solution (to a final concentration of 200 μM) and 10 μL PTPase in assay buffer. The reactants are mixed well, the plate placed in a water bath at 30° C. and incubated for 3 minutes. The reaction is then terminated by adding 100 μL of Malachite Green solution per well, color is allowed to develop for 15 minutes, and the A650 is measured by conventional means.
Unless otherwise indicated, this assay was used to determine activity for the selected compounds whose activity is recorded in the Table.

The melting point is the temperature, or range, at which the solid turns liquid. As for `O=C(O)CCSC(c1cccc(-c2nnc(Nc3ccc(Cl)c(Cl)c3)s2)c1)c1cccc(C(F)(F)F)c1` (stereo not shown), the melting point was 140 to 141 °C. For orientation: IC50 means the midpoint of a concentration-inhibition curve. The low end stands for higher potency, the high end for lower potency. The compound `O=C(O)c1cccc(Nc2nnc(-c3cc(OCc4ccccc4)cc(OCc4ccccc4)c3)s2)c1` [Compound 188, 3-[5-(3,5-Bis-benzyloxy-phenyl)-[1,3,4]thiadiazol-2-ylamino]-benzoic acid] displayed an IC50 in data set [1] of 10 µM. Still for that read-out and setting: the value for `O=C(O)c1cccc(Nc2nnc(-c3cc(Oc4cccc(C(F)(F)F)c4)cc(Oc4cccc(C(F)(F)F)c4)c3)s2)c1` [Compound 198, 3-{5-[3,5-Bis-(3-trifluoromethyl-phenoxy)-phenyl]-[1,3,4]thiadiazol-2-ylamino}-benzoic acid] was 4 µM. `O=[N+]([O-])c1cccc(-c2nnc(Nc3cccc(Br)c3)s2)c1` [Example 1, N2-(3-bromophenyl)-5-(3-nitrophenyl)-1,3,4-thiadiazol-2-amine]: the melting point fell in the range of 273 to 275 °C. Regarding `O=C(O)CCc1cccc(Oc2cccc(-c3nnc(Nc4ccc(Cl)c(Cl)c4)s3)c2)c1` [Example 9, 3-[3-(3-{5-[(3,4-Dichlorophenyl)amino]-1,3,4-thiadiazol-2-yl}phenoxy)phenyl]propanoic acid], the melting point was in the range of 194 to 196 °C. Still for that read-out and setting: then `O=[N+]([O-])c1ccccc1OCc1nnc(Nc2cccc(Br)c2)s1` [Example 36, (3-Bromophenyl){5-[(2-nitrophenoxy)methyl](1,3,4-thiadiazol-2-yl)}amine], with 184 to 185 °C; and `COc1ccc(CSc2cccc(Nc3nnc(-c4cccc([N+](=O)[O-])c4)s3)c2)cc1` [Example 41, {3-[(4-Methoxyphenyl)methylthio]phenyl}[5-(3-nitrophenyl)(1,3,4-thiadiazol-2-yl)]amine], with 208 to 209 °C. Compound `COc1cccc(-c2nnc(Nc3ccc(F)c(Cl)c3)s2)c1` [Example 68, (3-chloro-4-fluorophenyl)[5-(3-methoxyphenyl)(1,3,4-thiadiazol-2-yl)]amine] showed a melting point of 185 to 187 °C. Still for that read-out and setting: the value for `COc1cccc(-c2nnc(Nc3ccc(Br)c(Cl)c3)s2)c1` [Example 69, (4-bromo-3-chlorophenyl)[5-(3-methoxyphenyl)(1,3,4-thiadiazol-2-yl)]amine] was 215 to 217 °C. Same read-out and setting: then `CCOc1cccc(-c2nnc(Nc3ccc(F)c(Cl)c3)s2)c1` [Example 70, (3-chloro-4-fluorophenyl)[5-(3-ethoxyphenyl)(1,3,4-thiadiazol-2-yl)]amine], with 170 to 172 °C; and `CCOc1cccc(-c2nnc(Nc3ccc(Br)c(C)c3)s2)c1` [Example 71, (4-bromo-3-methylphenyl)[5(3-ethoxyphenyl)(1,3,4-thiadiazol-2-yl)]amine], with 201 to 202 °C; and `CCOc1cccc(-c2nnc(Nc3cccc(Br)c3)s2)c1` [Example 74, (3-bromophenyl)[5-(3-ethoxyphenyl)(1,3,4-thiadiazol-2-yl)]amine], with 195 to 197 °C. Compound `O=[N+]([O-])c1cccc(-c2nnc(Nc3cccc(Cl)c3Cl)s2)c1` [Example 76, (2,3-dichlorophenyl)[5-(3-nitrophenyl)(1,3,4-thiadiazol-2-yl)]amine] came in with a melting point of 240 to 242 °C. Still for that read-out and setting: the value for `Clc1cc(Nc2nnc(-c3ccc4nonc4c3)s2)ccc1Br` [Example 122, (5-benzo[3,4-c]1,2,5-oxadiazol-5-yl(1,3,4-thiadiazol-2-yl))(4-bromo-3-chlorophenyl)amine] was 326 to 327 °C. Same read-out and setting: then `CCOC(=O)c1ccc(Nc2nnc(-c3ccc(Oc4ccccc4)cc3)s2)cc1` [Example 123, ethyl 4-{[5-(4-phenoxyphenyl)-1,3,4-thiadiazol-2-yl]amino}benzoate], with 206 to 207 °C; and `O=[N+]([O-])c1cccc(Oc2cccc(-c3nnc(Nc4ccc(Cl)c(Cl)c4)s3)c2)c1` [Example 126, (3,4-dichlorophenyl){5-[3-(3-nitrophenoxy)phenyl](1,3,4-thiadiazol-2-yl)}amine], with 210.5 to 211.5 °C. Compound `O=C(O)Cc1cccc(Oc2cccc(-c3nnc(Nc4ccc(Cl)c(Cl)c4)s3)c2)c1` [Example 127, 2-[3-(3-{5-[(3,4-dichlorophenyl)amino]-1,3,4-thiadiazol-2-yl}phenoxy)phenyl]acetic acid] had a melting point of 183 to 184 °C. On the same count and under the same terms, then `Oc1ccc(Oc2cccc(-c3nnc(Nc4ccc(Cl)c(Cl)c4)s3)c2)cc1` [Example 128, 4-(3-{-[(3,4-dichlorophenyl)amino]-1,3,4-thiadiazol-2-yl}phenoxy)phenol], with 224 to 225.5 °C; and `FC(F)(F)Oc1cccc(COc2cccc(-c3nnc(Nc4ccc(Cl)c(Cl)c4)s3)c2)c1` [Example 129, (3,4-dichlorophenyl)[5-(3-{[3-(trifluoromethoxy)phenyl]methoxy}phenyl)(1,3,4-thiadiazol-2-yl)]amine], with 166 to 167 °C; and `CCOc1cccc(-c2nnc(N(Cc3cccc([N+](=O)[O-])c3)c3ccc(Cl)c(Cl)c3)s2)c1` [Example 147, (3,4-dichlorophenyl)[5-(3-ethoxyphenyl)(1,3,4-thiadiazol-2-yl)][(3-nitrophenyl)methyl]amine], with 114 to 115 °C. Same read-out and setting: the value for `COc1ccc(Oc2cccc(-c3nnc(Nc4ccc(Cl)c(Cl)c4)s3)c2)cc1` [Example 150, (3,4-dichlorophenyl)(5-[3-(4-methoxyphenoxy)phenyl](1,3,4-thiadiazol-2-yl)}amine] was 198 to 199 °C. For `Cc1ccc(Oc2cccc(-c3nnc(Nc4ccc(Cl)c(Cl)c4)s3)c2)cc1` [Example 151, (3,4-dichlorophenyl){5-[3-(4-methylphenoxy)phenyl](1,3,4-thiadiazol-2-yl)}amine], the melting point was 210 to 211 °C. On the same count and under the same terms, then `Clc1cc(Cl)cc(Oc2cccc(-c3nnc(Nc4ccc(Cl)c(Cl)c4)s3)c2)c1` [Example 152, (3,4-dichlorophenyl){5-[3-(3,5-dichlorophenoxy)phenyl](1,3,4-thiadiazol-2-yl)}amine], with 242 to 243 °C; and `Clc1ccc(Nc2nnc(-c3cccc(Oc4ccc(Cl)c(Cl)c4)c3)s2)cc1Cl` [Example 153, (3,4-dichlorophenyl)(5-[3-(3,4-dichlorophenoxy)phenyl](1,3,4-thiadiazol-2-yl)}amine], with 189 to 190 °C. On to `FC(F)(F)c1cccc(Oc2cccc(-c3nnc(Nc4ccc(Cl)c(Cl)c4)s3)c2)c1` [Example 154, (3,4-dichlorophenyl)(5-{3-[3-(trifluoromethyl)phenoxy]phenyl}(1,3,4-thiadiazol-2-yl))amine], for which the melting point was in the range of 212 to 213 °C. On the same count and under the same terms, the value for `O=C(O)c1ccc(CN(c2ccc(Cl)c(Cl)c2)c2nnc(-c3cccc(Oc4cccc(C(F)(F)F)c4)c3)s2)cc1` [Example 157, 4-{[(3,4-dichlorophenyl)(5-{3-[3-(trifluoromethyl)phenoxy]phenyl}-(1,3,4-thiadiazol-2-yl))amino]methyl}benzoic acid] was 114 to 116 °C; that for `Nc1nnc(-c2cccc(Oc3cccc(COc4ccc(Cl)c(Cl)c4)c3)c2)s1` [Example 158, (3,4-dichlorophenyl)(5-{3-[3-(oxymethyl)phenoxy]phenyl)(1,3,4-thiadiazol-2-yl))amine] was 128 to 130 °C; that for `Clc1ccc(Nc2nnc(-c3cc(OCc4ccccc4)cc(OCc4ccccc4)c3)s2)cc1Cl` [Example 160, (3,4-dichlorophenyl){5-[3,5-bis(phenylmethoxy)phenyl](1,3,4-thiadiazol-2-yl)}amine] was 212 to 214 °C. On the same count and under the same terms, the value for `Clc1ccc(Nc2nnc(-c3ccc4nonc4c3)s2)cc1Cl` [Example 162, (5-benzo[c]1,2,5-oxadiazol-5-yl(1,3,4-thiadiazol-2-yl))(3,4-dichlorophenyl)amine] was 315 to 317 °C; that for `CC(=NNc1ccc(C(=O)O)cc1)c1cccc(Nc2nnc(-c3cccc(Oc4cccc(C(F)(F)F)c4)c3)s2)c1` [Example 165, 4-{N′-[1-(3-{5-[3-(3-Trifluoromethyl-phenoxy)-phenyl]-[1,3,4]thiadiazol-2-ylamino}-phenyl)-ethylidene]-hydrazino}-benzoic acid] was 277.5 to 279 °C; that for `O=C(O)c1ccc(CNc2nnc(-c3cccc(Oc4ccccc4)c3)s2)cc1` [Example 166, 4-({[5-(3-phenoxyphenyl)-1,3,4-thiadiazol-2-yl]amino}methyl)benzoic acid] was 192 to 195 °C.
